pIC50: −log10 of the molar value. The source made the active and inactive calls. The rule behind the calls is not given here.

In series [1] the target is Voltage-gated inwardly rectifying potassium channel KCNH2 (Homo sapiens, UniProt Q12809). Description: Inhibition of hERG expressed in CHO cells by automated patch clamp electrophysiology analysis. The format is toxicity, cell-based. A general note: Block of hERG is tested as a sign of cardiac risk.
The nature of series [2]: Observed clearance in Sprague-Dawley rat at 2.5 mg/kg,iv administration. The format is ADME, organism-based. As to conditions: in vivo.
Series [3] addresses Dual specificity calcium/calmodulin-dependent 3',5'-cyclic nucleotide phosphodiesterase 1C (Homo sapiens, UniProt Q14123). Briefly: Inhibition of PDE1C2 (147 to 531 residues) (unknown origin) using 3H-cGMP as substrate incubated for 15 mins by liquid scintillation counter analysis.
Series [4] in a line: Observed volume of distribution at steady state in Sprague-Dawley rat at 2.5 mg/kg,iv administration. It is filed as ADME, organism-based. The conditions noted are these: in vivo, read-out: Vdss.
In series [5] the test system is Rattus norvegicus. Description: Antifibrotic activity against bile duct ligation induced Sprague-Dawley rat liver fibrosis model assessed as reduction in ALT level at 2.5 mg/kg,ip administrated once daily for 21 days. It is filed as functional, organism-based. The conditions noted are these: time 21.0 day.
Series [6] is described as follows: Selectivity index, ratio of IC50 for inhibition of PDE1C2 (147 to 531 residues) (unknown origin) using 3H-cGMP as substrate to IC50 for inhibition of PDE4D (86 to 413 residues) (unknown origin) using 3H-cAMP as substrate.
The subject of series [7] is Rattus norvegicus. Briefly: Antifibrotic activity against bile duct ligation induced Sprague-Dawley rat liver fibrosis model assessed as reduction in collagen deposition at 2.5 mg/kg,ip administrated once daily for 21 days by Masson's trichome staining based analysis. The format is functional, organism-based. The conditions noted are these: time 21.0 day.
Series [8] relates to Rattus norvegicus. Briefly: Antifibrotic activity against bile duct ligation induced Sprague-Dawley rat liver fibrosis model assessed as reduction in liver damage at 2.5 mg/kg,ip administrated once daily for 21 days by hematoxylin and eosin staining based analysis. It is filed as functional, organism-based. The conditions noted are these: time 21.0 day.
Series [9] deals with 3',5'-cyclic-AMP phosphodiesterase 4D (Homo sapiens, UniProt Q08499). Briefly: Inhibition of PDE4D (86 to 413 residues) (unknown origin) using 3H-cAMP as substrate.
Series [10] has as its target cGMP-specific 3',5'-cyclic phosphodiesterase (Homo sapiens, UniProt O76074). Briefly: Inhibition of PDE5A (535 to 860 residues) (unknown origin) using 3H-cGMP as substrate.
A short description of series [11]: Half life in Sprague-Dawley rat at 2.5 mg/kg,iv administration. It is filed as ADME, organism-based. As to conditions: in vivo.
In the next series the target is Cytochrome P450 2C9 (Homo sapiens, UniProt P11712). Briefly: Inhibition of CYP2C9 in human liver microsomes in presence of NADPH. It is filed as ADME, Microsome.
Series [12] concerns the target cGMP-inhibited 3',5'-cyclic phosphodiesterase 3A (Homo sapiens, UniProt Q14432). Description: Inhibition of PDE3A (679 to 1087 residues) (unknown origin) using 3H-cAMP as substrate.
A short description of series [13]: Selectivity index, ratio of IC50 for inhibition of PDE1C2 (147 to 531 residues) (unknown origin) using 3H-cGMP as substrate to IC50 for inhibition of PDE7A (130 to 482 residues) (unknown origin) using 3H-cAMP as substrate.
In another series the test system is LX-2. Briefly: Antifibrotic activity against TGF-beta induced human LX-2 cell activation assessed as downregulation of fibronectin expression incubated for 48 hrs by Western blotting analysis. The format is functional, cell-based. (In general: Immunoblotting shows a protein as a band on a membrane.)
Series [14] in a line: Acute toxicity in Kunming mouse assessed as lethal dose at po administration for 14 days. The conditions noted are these: in vivo, 336 h, time 14 day. The format is organism-based.
In series [15] the target is cGMP-dependent 3',5'-cyclic phosphodiesterase (Homo sapiens, UniProt O00408). Briefly: Inhibition of PDE2A (580 to 919 residues) (unknown origin) using 3H-cGMP as substrate.
Series [16] is described as follows: Cmax in Sprague-Dawley rat at 2.5 mg/kg,iv administration. It is filed as ADME, organism-based. The conditions noted are these: in vivo.
Series [17] relates to Rattus norvegicus. Briefly: Antifibrotic activity against bile duct ligation induced Sprague-Dawley rat liver fibrosis model assessed as increase in cAMP level in liver at 2.5 mg/kg,ip administrated once daily for 21 days by ELISA. It is filed as functional, organism-based. The conditions noted are these: time 21.0 day. In general terms: Changes in cAMP serve as a functional read-out for many G protein-coupled receptors.

A short description of series [18]: Selectivity index, ratio of IC50 for inhibition of PDE1C2 (147 to 531 residues) (unknown origin) using 3H-cGMP as substrate to IC50 for inhibition of PDE3A (679 to 1087 residues) (unknown origin) using 3H-cAMP as substrate.

cGMP-dependent 3',5'-cyclic phosphodiesterase, sequence (O00408 whole entry, the tested form may be a part): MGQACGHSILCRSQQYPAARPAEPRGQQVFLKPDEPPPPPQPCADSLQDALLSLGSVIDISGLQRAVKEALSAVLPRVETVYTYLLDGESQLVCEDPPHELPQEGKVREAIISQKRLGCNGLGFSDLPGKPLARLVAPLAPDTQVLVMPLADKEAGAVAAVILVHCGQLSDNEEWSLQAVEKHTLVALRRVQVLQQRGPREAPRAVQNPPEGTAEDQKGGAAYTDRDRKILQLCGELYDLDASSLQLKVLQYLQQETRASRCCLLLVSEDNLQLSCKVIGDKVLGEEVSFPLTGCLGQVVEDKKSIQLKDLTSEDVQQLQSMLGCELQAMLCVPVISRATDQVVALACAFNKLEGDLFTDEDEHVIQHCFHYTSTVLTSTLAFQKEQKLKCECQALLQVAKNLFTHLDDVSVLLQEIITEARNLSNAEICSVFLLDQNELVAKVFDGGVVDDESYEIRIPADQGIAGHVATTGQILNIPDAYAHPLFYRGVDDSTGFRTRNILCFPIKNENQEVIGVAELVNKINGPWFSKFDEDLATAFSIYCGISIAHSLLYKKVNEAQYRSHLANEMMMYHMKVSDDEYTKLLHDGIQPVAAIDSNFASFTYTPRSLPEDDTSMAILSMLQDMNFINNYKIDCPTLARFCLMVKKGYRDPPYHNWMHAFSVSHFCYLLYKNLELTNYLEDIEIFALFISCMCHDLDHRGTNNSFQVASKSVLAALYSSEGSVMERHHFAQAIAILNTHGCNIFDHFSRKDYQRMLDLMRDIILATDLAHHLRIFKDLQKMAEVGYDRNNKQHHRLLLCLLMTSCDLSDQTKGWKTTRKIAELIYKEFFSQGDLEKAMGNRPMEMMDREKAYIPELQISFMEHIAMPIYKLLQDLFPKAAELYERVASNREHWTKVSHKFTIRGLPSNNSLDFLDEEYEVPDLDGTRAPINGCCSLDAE
cGMP-inhibited 3',5'-cyclic phosphodiesterase 3A, sequence (Q14432 whole entry, the tested form may be a part): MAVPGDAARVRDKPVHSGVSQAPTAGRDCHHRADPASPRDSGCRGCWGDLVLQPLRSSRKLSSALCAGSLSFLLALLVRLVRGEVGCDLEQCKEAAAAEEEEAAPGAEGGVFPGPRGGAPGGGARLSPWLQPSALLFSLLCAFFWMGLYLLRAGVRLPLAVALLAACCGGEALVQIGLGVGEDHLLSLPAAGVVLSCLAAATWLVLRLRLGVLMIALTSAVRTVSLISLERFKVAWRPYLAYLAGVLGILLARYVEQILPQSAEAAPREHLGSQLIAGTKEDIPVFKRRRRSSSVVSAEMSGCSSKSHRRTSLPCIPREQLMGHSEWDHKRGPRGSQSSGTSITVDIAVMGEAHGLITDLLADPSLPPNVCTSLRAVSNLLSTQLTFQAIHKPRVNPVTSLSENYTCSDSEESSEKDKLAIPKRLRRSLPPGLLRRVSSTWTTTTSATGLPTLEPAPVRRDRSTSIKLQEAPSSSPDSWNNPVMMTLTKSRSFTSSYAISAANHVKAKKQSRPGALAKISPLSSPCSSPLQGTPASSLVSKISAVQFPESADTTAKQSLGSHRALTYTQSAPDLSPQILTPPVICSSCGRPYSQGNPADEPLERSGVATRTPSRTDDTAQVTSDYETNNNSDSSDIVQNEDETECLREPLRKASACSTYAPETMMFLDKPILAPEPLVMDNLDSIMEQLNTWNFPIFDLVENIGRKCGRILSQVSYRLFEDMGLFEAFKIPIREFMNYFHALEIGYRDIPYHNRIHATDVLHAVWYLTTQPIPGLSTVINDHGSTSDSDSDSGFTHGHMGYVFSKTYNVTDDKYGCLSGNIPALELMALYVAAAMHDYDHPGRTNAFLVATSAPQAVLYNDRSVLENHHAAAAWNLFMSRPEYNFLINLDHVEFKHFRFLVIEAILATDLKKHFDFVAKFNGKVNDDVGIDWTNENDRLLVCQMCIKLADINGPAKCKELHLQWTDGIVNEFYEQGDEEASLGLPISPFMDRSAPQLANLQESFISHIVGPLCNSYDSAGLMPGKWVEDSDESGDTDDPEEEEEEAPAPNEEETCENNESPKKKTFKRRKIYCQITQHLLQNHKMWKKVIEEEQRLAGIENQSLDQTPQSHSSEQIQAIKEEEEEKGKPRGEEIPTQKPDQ
3',5'-cyclic-AMP phosphodiesterase 4D, sequence (Q08499 whole entry, the tested form may be a part): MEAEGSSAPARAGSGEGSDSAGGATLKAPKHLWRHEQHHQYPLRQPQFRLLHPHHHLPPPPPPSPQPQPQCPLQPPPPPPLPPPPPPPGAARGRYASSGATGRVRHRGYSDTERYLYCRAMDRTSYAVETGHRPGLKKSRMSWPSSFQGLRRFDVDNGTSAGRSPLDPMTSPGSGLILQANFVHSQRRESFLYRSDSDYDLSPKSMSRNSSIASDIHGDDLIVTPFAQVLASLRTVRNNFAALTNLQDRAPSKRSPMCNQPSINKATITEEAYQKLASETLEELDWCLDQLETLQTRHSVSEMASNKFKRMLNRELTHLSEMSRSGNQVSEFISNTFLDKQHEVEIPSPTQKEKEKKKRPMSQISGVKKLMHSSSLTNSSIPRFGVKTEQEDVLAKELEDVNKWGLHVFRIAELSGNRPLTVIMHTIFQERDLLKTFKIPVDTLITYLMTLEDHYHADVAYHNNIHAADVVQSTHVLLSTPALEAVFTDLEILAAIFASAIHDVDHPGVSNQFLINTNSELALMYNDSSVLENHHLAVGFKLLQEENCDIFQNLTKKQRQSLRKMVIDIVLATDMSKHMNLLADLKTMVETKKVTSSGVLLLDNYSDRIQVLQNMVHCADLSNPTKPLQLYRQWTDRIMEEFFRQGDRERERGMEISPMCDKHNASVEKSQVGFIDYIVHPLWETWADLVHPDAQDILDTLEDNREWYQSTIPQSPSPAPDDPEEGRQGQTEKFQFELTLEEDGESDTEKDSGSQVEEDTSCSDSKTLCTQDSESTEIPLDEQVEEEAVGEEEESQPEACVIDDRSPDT
Voltage-gated inwardly rectifying potassium channel KCNH2, sequence (Q12809 whole entry): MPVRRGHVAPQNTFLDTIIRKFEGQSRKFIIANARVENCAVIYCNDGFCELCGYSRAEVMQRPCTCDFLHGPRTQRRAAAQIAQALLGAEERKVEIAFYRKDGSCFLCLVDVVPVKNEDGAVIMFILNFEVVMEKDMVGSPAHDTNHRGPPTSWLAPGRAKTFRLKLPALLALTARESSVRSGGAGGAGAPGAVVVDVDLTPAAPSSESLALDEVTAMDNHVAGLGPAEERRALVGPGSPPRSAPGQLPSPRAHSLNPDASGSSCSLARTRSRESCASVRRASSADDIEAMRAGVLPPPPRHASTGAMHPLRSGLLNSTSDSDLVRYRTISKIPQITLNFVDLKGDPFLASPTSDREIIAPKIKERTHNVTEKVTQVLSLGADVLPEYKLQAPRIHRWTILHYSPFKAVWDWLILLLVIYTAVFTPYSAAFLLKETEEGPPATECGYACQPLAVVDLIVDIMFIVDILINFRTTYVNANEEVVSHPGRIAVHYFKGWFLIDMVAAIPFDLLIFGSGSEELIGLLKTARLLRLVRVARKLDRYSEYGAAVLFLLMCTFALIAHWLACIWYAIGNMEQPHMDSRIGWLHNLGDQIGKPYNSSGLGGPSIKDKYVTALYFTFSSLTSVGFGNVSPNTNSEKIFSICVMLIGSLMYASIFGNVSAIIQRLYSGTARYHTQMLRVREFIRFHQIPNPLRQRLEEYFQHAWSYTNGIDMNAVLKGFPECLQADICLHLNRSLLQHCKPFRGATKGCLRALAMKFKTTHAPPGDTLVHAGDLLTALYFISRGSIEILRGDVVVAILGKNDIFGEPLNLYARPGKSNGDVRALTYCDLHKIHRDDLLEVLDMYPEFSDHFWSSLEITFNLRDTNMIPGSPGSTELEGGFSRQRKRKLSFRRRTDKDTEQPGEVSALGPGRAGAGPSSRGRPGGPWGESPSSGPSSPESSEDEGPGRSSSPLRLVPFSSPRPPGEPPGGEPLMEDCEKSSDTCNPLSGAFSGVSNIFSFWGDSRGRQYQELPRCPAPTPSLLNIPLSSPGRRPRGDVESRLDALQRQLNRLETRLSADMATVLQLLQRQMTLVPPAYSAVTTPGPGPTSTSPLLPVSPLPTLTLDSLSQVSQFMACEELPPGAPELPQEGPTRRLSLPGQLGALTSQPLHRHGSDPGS
Dual specificity calcium/calmodulin-dependent 3',5'-cyclic nucleotide phosphodiesterase 1C, sequence (Q14123 whole entry, the tested form may be a part): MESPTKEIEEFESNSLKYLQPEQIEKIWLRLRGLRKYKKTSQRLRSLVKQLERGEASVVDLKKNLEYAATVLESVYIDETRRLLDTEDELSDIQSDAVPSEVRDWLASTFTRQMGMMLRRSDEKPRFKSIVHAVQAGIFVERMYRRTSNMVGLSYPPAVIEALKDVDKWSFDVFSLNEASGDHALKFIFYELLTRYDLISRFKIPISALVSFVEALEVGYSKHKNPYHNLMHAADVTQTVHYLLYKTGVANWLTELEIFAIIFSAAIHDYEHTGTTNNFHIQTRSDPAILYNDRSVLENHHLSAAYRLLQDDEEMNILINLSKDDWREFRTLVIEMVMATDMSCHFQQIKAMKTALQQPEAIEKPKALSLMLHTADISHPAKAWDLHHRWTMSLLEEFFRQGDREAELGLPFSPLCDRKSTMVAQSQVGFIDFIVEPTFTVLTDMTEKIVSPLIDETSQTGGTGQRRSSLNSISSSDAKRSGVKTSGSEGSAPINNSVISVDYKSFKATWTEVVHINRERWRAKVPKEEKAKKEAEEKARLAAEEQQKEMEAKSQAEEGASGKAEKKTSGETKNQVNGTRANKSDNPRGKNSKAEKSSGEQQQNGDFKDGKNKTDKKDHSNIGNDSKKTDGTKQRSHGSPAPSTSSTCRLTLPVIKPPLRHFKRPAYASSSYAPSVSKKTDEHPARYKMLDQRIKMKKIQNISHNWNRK

Consider `CC1=C(C(=O)OCC2CCCCC2)C(c2ccc(OC(F)F)c(OCC3CC3)c2)N(C(=O)SCc2ccccc2)C(=O)N1` (stereo not given), for which the pIC50 in series [1] is under 4.40; in series [3] it was 8.00; in series [9], 5.69; in series [10] it was 5.78; at Cytochrome P450 2C9 it was under 4.60; in series [12], under 5.30. Further, the pIC50 in [15] was 5.45. This compound also registered a clearance in series [2] of 6.56 mL/min/kg. For the same compound, in series [4], the Vd came to 0.698 L/kg. The result in the series with Rattus norvegicus [5], in the series on Rattus norvegicus [7], with Rattus norvegicus [8] and in the series with Rattus norvegicus [17] was Active. The Ratio IC50 is 205 in series [6], over 500 in series [13] and over 500 in [18]. This compound also gave a half-life in [11] of 7.51 h. In addition, the Activity result with LX-2 was “Dose-Dependent Effect”. Moreover, in [14], the LD was over 1500 mg/kg. The compound also yielded a Cmax in series [16] of 25000 ng/mL.

As usually defined, the pIC50 is the IC50 on a negative log10 scale, so that one unit is a factor of ten. In general, clearance refers to a measure of how efficiently the substance is removed, as volume per time. In general, half-life refers to how long it takes for the measured level to halve. A high value points to slow loss. Usually Cmax stands for the maximum level reached in the sampled fluid or tissue.

These data come from ChEMBL document CHEMBL5506023, “Design, Synthesis, and Evaluation of Dihydropyrimidine Derivatives as Selective PDE1 Inhibitors for the Treatment of Liver Fibrosis” (J Med Chem, 2024).
